Experimental findings from BindingDB's records for doi:10.1046/j.1471-4159.2000.751294.x (University of California, 2000) are described below.

The nature of this experiment: Displacement of [3H]IMI from nicotinic acetylcholine receptor in Aphis craccivora (cowpea aphid) whole body membrane after 90 min by filter binding assay. (In general: Loss of bound radioactivity is the signal in a displacement assay; it reports binding, not function.)

For the molecule `C/N=C(\NCc1ccc(Cl)nc1)N[N+](=O)[O-]`, the IC50 (usually the point on the concentration scale where inhibition reaches its midpoint) was 4.4 nM.

Consider `O=[N+]([O-])/N=C1\NCOCN1Cc1ccc(Cl)nc1`, for which the IC50 came out at 15 nM. Compared with the last molecule, the IC50 is about 3.4-fold higher.

Consider `O=[N+]([O-])/N=C1\NCOCN1Cc1cnc(Cl)s1` [DESMETHYLTHIAMETHOXAM], for which the IC50 was 11 nM. The IC50 values of the last two molecules are within 1.5-fold of each other.

`O=[N+]([O-])/N=C1\NCCN1Cc1cnc(Cl)s1` [IMIDACLOTHIZ] yielded an IC50 of 8.2 nM.
